Here are results for 15 compounds from patent US20070027150A1 (priority 2005, published 2007).

The target of the first test is His-tagged N-terminal ATP binding domain (amino acid residues 9-236) of HSP90α (Homo sapiens, UniProt P07900). In words: HSP90 inhibitor binding potency: TRF competition binding assay. The following applies: Table I; read-out: Hsp90 IC50 Range. The procedure, abridged: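 His-tagged HSP90α N-domain (residues 9-236) incubated 2 h at room temperature with biotinylated radicicol and increasing compound in 50 mM HEPES, 6 mM MgCl2, 20 mM KCl, 0.1% BSA. Bound tracer captured on streptavidin plates, detected with europium anti-His antibody by time-resolved fluorescence; IC50 derived.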
As a reminder, the IC50 is the point on the concentration scale where inhibition reaches its midpoint. In the case of `Cc1nc(N)nc2c1C(=O)CC(c1ccccc1-c1ccsc1)C2` (stereo not drawn) [Compound 46, 2-amino-4-methyl-7-(2-thien-3-ylphenyl)-7,8-dihydroquinazolin-5(6H)-one], the 50% inhibitory concentration (IC50) was below 1 µM. In the case of `Cc1nc(N)nc2c1C(=O)CC(c1ccccc1N1CCOCC1)C2` (stereo not drawn) [Compound 13, 2-amino-4-methyl-7-(2-morpholin-4-yl-phenyl)-7,8-dihydro-6H-quinazolin-5-one], the IC50 was below 1 µM. Regarding `COc1ccc(-c2cncnc2)c(C2CC(=O)c3c(C)nc(N)nc3C2)c1` (stereo not drawn) [Compound 75, 2-amino-7-(5-methoxy-2-pyrimidin-5-ylphenyl)-4-methyl-7,8-dihydroquinazolin-5(6H)-one], the IC50 is 1 to 10 µM. `Cc1nc(N)nc2c1C(=O)CC(c1ccccc1-c1ccccc1Cl)C2` (stereo not drawn) [Compound 79, 2-amino-7-(2′-chloro-1,1′-biphenyl-2-yl)-4-methyl-7,8-dihydroquinazolin-5(6H)-one]: the IC50 was below 1 µM. On the same count and under the same terms, for `Cc1nc(N)nc2c1C(=O)CC(c1ccc(F)cc1-c1cccnc1F)C2` (stereo not drawn) [Compound 87, 2-amino-7-[4-fluoro-2-(2-fluoropyridin-3-yl)phenyl]-4-methyl-7,8-dihydroquinazolin-5(6H)-one] the value was below 1 µM; for `Cc1nc(N)nc2c1C(=O)CC(c1ccc(Cl)cc1)C2` (stereo not drawn) [Compound 3, 2-amino-7-(4-chlorophenyl)-4-methyl-7,8-dihydroquinazolin-5(6H)-one], below 1 µM; for `COc1cccc(-c2ccccc2CO)c1C1CC(=O)c2c(C)nc(N)nc2C1` (stereo not drawn) [Compound 105, 2-amino-7-[2′-(hydroxymethyl)-3-methoxy-1,1′-biphenyl-2-yl]-4-methyl-7,8-dihydroquinazolin-5(6H)-one], below 1 µM.

The test is the same for the next values; noted with them: Table II; read-out: Hsp90 IC50 Range.
Consider `Cc1nc(N)nc2c1C(=O)CC(c1ncsc1-c1cc(F)ccc1F)C2` (stereo not drawn) [Compound 292, 2-amino-7-[5-(2,5-difluoro-phenyl)-thiazol-4-yl]-4-methyl-7,8-dihydro-6H-quinazolin-5-one], for which the IC50 is below 1 µM. The same measure, in the same setting: for `COc1ccc(F)c(-c2scnc2C2CC(=O)c3c(C)nc(N)nc3C2)c1` (stereo not drawn) [Compound 289, 2-amino-7-[5-(2-fluoro-5-methoxy-phenyl)-thiazol-4-yl]-4-methyl-7,8-dihydro-6H-quinazolin-5-one] the value was 1 to 10 µM; for `COc1cccc(-c2cccc(F)c2C2CC(=O)c3c(C)nc(N)nc3C2)n1` (stereo not drawn) [Compound 220, 2-amino-7-[2-fluoro-6-(6-methoxy-pyridin-2-yl)-phenyl]-4-methyl-7,8-dihydro-6H-quinazolin-5-one], below 1 µM; for `COc1nc(-n2ccnc2C2CC(=O)c3c(C)nc(N)nc3C2)ncc1C` (stereo not drawn) [Compound 206, 2-amino-7-[1-(4-methoxy-5-methyl-pyrimidin-2-yl)-1H-imidazol-2-yl]-4-methyl-7,8-dihydro-6H-quinazolin-5-one], below 1 µM. Same read-out and setting: then `COc1nc(-c2cc(F)ccc2[C@@H]2CC(=O)c3c(C)nc(N)nc3C2)cnc1N` [Compound 287, (S)-2-amino-7-[2-(5-amino-6-methoxy-pyrazin-2-yl)-4-fluoro-phenyl]-4-methyl-7,8-dihydro-6H-quinazolin-5-one], with below 1 µM. On to `Nc1nc(O)c2c(n1)CC(c1ccccc1)CC2=O` (stereo not drawn) [Compound 311, 2-amino-4-hydroxy-7-phenyl-7,8-dihydro-6H-quinazolin-5-one], for which the IC50 was above 10 µM. Take `Cc1nc(N)nc2c1C(=O)CC(c1ccc(F)cc1OCC(C)C)C2` (stereo not drawn) [Compound 266, 2-amino-7-(4-fluoro-2-isobutoxy-phenyl)-4-methyl-7,8-dihydro-6H-quinazolin-5-one]: the IC50 was below 1 µM. The same measure, in the same setting: for `Cc1nc(N)nc2c1C(=O)C[C@@H](c1ccc(F)cc1-c1cccc(F)n1)C2` [Compound 214, (S)-2-amino-7-[4-fluoro-2-(6-fluoro-pyridin-2-yl)-phenyl]-4-methyl-7,8-dihydro-6H-quinazolin-5-one] the value was below 1 µM.
